Test results published in patent US12479847B2 (DANA-FARBER CANCER INSTITUTE, INC., priority 2019, dated 2025).

Assays:
Assay in all cases: KINOMEscan (ScanMAX) kinase profiling
Format in all cases: binding
panel of 468 kinases [1] = biological target: T1, panel of 468 kinases (Homo sapiens, UniProt O60331); conditions: PIP5K1C; 1 μM; read-out: % control
T1 construct: purchased KINOMEscan (ScanMAX) service

panel of 468 kinases [2] = biological target: T2, panel of 468 kinases (Homo sapiens, UniProt Q8IYT8); conditions: ULK2; 1 μM; read-out: % control
T2 construct: purchased KINOMEscan (ScanMAX) service
T2 sequence (Q8IYT8 1-1036): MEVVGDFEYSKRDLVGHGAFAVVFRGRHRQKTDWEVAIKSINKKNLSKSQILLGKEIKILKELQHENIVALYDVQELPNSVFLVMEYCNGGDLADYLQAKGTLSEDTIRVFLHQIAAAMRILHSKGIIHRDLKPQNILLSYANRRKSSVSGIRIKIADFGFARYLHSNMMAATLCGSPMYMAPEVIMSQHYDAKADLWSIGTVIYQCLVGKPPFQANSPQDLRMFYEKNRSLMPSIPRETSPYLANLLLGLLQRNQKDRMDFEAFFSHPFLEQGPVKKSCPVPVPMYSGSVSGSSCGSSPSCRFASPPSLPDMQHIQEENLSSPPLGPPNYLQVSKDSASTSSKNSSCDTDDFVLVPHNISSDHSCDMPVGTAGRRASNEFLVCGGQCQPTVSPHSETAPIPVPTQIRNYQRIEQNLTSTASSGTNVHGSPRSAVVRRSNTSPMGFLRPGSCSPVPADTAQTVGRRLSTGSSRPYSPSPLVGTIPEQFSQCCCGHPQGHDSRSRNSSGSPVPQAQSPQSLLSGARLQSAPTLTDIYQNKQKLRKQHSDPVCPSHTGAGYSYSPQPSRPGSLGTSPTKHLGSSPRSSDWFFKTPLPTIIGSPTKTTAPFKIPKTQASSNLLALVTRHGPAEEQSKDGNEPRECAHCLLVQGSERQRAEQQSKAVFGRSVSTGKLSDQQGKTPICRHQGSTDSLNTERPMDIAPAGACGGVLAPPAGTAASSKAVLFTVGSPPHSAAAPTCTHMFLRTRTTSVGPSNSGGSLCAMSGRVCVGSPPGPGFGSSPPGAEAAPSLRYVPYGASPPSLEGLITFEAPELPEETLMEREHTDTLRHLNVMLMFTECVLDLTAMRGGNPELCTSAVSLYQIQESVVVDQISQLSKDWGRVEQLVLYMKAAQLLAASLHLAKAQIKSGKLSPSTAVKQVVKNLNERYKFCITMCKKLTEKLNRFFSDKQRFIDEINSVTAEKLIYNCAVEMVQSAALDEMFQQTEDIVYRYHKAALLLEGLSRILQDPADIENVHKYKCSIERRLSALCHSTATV

panel of 468 kinases [3] = biological target: T3, panel of 468 kinases (Homo sapiens, UniProt P29317); conditions: EPHA2; 1 μM; read-out: % control
T3 construct: purchased KINOMEscan (ScanMAX) service
T3 sequence (P29317 24-976): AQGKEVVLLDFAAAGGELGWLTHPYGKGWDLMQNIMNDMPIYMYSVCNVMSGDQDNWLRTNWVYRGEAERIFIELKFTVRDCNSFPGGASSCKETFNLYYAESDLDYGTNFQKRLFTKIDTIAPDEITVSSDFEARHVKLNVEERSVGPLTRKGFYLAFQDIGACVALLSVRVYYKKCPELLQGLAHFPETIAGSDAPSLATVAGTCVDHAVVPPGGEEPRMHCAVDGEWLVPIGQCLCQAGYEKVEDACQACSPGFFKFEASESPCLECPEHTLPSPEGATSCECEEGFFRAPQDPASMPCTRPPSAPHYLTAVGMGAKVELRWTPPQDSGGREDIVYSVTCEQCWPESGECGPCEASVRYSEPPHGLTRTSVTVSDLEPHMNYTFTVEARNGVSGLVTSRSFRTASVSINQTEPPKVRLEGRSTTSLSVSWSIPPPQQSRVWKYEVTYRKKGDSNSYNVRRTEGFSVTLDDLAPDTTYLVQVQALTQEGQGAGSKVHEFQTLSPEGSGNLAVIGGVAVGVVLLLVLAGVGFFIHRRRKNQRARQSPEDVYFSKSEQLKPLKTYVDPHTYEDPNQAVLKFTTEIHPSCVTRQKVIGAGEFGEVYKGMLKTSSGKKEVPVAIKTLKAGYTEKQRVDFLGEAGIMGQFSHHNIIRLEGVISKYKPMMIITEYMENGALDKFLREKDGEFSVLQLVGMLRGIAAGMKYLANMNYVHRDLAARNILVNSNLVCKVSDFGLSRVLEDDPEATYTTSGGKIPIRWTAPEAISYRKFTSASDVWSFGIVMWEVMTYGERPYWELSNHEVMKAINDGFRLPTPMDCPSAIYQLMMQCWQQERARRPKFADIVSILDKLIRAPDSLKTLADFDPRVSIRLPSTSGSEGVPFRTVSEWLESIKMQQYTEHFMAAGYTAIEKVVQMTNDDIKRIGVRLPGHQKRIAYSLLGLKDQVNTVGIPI

panel of 468 kinases [4] = biological target: T4, panel of 468 kinases (Homo sapiens, UniProt Q9UM73, C1156Y); conditions: ALK(C1156Y); 1 μM; read-out: % control
T4 construct: purchased KINOMEscan (ScanMAX) service
T4 sequence (Q9UM73 19-1620 C1156Y): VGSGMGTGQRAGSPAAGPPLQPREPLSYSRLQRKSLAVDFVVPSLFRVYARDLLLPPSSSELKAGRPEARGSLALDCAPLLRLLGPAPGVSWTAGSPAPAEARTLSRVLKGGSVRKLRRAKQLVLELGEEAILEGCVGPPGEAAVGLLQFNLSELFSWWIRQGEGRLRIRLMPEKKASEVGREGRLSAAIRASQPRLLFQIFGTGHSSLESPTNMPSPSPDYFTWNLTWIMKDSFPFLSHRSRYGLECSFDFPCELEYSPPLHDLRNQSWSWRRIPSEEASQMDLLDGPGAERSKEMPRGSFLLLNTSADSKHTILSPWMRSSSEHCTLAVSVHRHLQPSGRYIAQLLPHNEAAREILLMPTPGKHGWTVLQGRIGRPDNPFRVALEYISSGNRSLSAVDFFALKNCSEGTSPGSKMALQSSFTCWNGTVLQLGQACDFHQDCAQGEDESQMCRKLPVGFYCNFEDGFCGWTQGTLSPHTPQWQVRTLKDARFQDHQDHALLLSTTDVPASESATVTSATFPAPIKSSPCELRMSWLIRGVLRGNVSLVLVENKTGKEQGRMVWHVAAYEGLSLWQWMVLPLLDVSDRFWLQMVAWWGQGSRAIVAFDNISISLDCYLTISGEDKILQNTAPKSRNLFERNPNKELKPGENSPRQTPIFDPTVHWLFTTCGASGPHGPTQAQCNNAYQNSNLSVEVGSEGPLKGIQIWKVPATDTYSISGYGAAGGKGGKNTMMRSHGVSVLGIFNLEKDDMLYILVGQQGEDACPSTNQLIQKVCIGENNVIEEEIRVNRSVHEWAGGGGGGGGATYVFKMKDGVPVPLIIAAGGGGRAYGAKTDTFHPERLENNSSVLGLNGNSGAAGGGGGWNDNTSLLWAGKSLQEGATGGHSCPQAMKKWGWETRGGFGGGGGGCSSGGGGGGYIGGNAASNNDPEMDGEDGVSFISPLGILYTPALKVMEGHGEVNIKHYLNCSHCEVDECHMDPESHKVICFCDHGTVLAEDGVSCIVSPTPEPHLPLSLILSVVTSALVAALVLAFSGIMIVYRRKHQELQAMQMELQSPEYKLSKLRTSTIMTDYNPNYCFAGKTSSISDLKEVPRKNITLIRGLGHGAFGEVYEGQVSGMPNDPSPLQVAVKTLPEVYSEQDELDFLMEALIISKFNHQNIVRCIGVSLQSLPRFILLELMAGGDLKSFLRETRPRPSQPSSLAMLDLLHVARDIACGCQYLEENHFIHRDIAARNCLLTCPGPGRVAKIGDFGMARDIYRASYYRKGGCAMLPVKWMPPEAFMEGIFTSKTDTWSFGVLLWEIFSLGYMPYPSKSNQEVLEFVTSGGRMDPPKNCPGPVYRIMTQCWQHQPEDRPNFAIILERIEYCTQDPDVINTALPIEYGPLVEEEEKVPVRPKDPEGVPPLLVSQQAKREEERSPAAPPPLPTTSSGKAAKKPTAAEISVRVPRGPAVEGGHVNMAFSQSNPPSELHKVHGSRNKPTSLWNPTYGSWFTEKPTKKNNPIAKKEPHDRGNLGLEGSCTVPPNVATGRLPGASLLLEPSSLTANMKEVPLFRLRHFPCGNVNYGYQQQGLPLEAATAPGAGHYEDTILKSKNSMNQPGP

panel of 468 kinases [5] = biological target: T5, panel of 468 kinases (Homo sapiens, UniProt Q59H18); conditions: TNNI3K; 1 μM; read-out: % control
T5 construct: purchased KINOMEscan (ScanMAX) service
T5 sequence (Q59H18 1-835): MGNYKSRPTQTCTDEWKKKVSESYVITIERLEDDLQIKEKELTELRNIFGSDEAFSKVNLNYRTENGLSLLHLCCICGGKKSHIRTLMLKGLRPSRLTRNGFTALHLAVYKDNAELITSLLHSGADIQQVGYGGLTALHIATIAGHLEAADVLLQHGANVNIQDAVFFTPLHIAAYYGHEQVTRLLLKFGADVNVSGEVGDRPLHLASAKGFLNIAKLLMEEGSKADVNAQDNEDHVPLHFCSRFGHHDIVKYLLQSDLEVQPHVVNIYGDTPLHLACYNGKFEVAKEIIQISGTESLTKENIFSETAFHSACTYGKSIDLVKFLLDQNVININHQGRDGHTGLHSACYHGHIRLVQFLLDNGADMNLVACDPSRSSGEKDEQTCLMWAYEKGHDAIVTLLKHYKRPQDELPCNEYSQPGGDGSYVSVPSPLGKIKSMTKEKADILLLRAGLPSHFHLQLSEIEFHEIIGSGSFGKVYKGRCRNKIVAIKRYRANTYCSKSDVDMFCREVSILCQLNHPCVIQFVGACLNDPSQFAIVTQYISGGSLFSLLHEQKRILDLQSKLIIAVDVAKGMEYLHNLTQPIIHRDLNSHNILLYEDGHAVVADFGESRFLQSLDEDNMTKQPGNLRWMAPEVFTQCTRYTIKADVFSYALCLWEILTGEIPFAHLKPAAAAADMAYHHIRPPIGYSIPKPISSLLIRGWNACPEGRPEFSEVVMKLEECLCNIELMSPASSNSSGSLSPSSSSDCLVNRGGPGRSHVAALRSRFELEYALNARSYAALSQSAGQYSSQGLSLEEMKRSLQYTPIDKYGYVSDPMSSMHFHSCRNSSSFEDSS

panel of 468 kinases [6] = biological target: T6, panel of 468 kinases (Homo sapiens, UniProt Q15208); conditions: NDR1; 1 μM; read-out: % control
T6 construct: purchased KINOMEscan (ScanMAX) service
T6 sequence (Q15208 whole entry): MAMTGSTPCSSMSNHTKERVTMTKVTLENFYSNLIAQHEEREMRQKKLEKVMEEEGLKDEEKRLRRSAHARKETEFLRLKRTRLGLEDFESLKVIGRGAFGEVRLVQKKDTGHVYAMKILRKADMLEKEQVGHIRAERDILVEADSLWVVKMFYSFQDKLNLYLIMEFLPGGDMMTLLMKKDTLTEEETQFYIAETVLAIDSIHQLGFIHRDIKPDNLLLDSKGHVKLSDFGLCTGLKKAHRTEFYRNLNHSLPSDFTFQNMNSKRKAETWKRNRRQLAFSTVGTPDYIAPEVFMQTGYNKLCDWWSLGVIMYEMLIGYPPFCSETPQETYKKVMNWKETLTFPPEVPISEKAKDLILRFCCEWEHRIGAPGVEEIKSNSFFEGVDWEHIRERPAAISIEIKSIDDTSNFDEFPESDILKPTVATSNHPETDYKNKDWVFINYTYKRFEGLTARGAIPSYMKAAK

panel of 468 kinases [7] = biological target: T7, panel of 468 kinases (Homo sapiens, UniProt Q9UIK4); conditions: DAPK2; 1 μM; read-out: % control
T7 construct: purchased KINOMEscan (ScanMAX) service
T7 sequence (Q9UIK4 whole entry): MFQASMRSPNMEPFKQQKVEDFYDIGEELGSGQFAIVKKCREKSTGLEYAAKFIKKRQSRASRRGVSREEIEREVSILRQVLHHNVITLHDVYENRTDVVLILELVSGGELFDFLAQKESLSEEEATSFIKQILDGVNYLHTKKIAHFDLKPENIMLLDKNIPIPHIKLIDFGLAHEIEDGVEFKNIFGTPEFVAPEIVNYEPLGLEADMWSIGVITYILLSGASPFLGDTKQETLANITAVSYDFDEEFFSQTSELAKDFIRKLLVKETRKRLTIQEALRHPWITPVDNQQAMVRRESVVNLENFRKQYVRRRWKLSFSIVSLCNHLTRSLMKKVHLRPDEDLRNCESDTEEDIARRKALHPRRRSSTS

panel of 468 kinases [8] = biological target: T8, panel of 468 kinases (Homo sapiens, UniProt Q96NX5); conditions: CAMK1G; 1 μM; read-out: % control
T8 construct: purchased KINOMEscan (ScanMAX) service
T8 sequence (Q96NX5 whole entry): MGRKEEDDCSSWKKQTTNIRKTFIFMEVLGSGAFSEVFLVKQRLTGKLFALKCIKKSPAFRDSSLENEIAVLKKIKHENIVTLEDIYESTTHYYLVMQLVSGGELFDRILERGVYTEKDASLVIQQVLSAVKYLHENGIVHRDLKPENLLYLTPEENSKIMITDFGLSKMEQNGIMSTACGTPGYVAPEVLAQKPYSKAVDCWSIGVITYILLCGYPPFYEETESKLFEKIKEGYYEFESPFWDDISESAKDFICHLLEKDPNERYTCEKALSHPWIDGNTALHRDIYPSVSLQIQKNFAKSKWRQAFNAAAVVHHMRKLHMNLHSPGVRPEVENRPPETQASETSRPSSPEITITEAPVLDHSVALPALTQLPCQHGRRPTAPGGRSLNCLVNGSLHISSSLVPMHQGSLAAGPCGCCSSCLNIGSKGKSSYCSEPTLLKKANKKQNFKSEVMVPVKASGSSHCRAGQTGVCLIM

panel of 468 kinases [9] = biological target: T9, panel of 468 kinases (Homo sapiens, UniProt Q8IY84); conditions: NIM1; 1 μM; read-out: % control
T9 construct: purchased KINOMEscan (ScanMAX) service
T9 sequence (Q8IY84 whole entry): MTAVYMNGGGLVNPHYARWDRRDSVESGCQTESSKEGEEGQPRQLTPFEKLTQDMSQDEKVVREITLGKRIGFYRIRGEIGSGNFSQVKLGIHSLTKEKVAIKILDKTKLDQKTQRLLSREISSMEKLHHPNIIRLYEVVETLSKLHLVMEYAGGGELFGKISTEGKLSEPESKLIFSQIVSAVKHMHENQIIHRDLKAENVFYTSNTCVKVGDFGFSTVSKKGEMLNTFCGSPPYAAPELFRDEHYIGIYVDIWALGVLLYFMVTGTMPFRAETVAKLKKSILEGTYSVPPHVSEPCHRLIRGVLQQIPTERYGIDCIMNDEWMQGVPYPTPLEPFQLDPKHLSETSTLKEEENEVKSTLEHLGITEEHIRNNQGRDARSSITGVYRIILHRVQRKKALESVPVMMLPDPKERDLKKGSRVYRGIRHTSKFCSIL

panel of 468 kinases [10] = biological target: T10, panel of 468 kinases (Homo sapiens, UniProt Q8N5S9); conditions: CAMKK1; 1 μM; read-out: % control
T10 construct: purchased KINOMEscan (ScanMAX) service

T1 sequence (O60331 whole entry): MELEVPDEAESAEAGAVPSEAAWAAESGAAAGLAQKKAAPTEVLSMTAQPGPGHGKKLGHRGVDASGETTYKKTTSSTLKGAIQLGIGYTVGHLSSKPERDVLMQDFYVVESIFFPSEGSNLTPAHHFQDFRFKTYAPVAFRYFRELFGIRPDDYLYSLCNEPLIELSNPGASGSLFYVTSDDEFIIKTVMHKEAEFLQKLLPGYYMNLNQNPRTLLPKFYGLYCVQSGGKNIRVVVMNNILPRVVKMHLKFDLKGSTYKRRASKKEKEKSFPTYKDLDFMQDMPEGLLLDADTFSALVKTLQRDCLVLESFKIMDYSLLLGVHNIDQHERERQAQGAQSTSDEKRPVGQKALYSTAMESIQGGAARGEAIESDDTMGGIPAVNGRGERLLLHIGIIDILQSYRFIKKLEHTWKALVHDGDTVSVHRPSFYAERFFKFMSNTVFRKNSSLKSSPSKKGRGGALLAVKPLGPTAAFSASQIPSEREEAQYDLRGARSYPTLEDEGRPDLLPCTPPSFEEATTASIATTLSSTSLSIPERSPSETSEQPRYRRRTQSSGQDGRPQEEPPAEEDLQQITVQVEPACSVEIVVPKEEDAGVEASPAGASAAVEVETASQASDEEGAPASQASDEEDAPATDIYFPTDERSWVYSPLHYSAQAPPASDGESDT

SMILES	remaining binding at 1 µM (panel of 468 kinases [1])	remaining binding at 1 µM (panel of 468 kinases [2])	remaining binding at 1 µM (panel of 468 kinases [3])	remaining binding at 1 µM (panel of 468 kinases [4])	remaining binding at 1 µM (panel of 468 kinases [5])	remaining binding at 1 µM (panel of 468 kinases [6])	remaining binding at 1 µM (panel of 468 kinases [7])	remaining binding at 1 µM (panel of 468 kinases [8])	remaining binding at 1 µM (panel of 468 kinases [9])	remaining binding at 1 µM (panel of 468 kinases [10])
CNc1nc(Nc2ccc(S(=O)(=O)N3CCC(N4CCOCC4)CC3)cc2OC)nc2[nH]cc(Cl)c12 [Compound 12, 5-chloro-N2-(2-methoxy-4-((4-morpholinopiperidin-1-yl)sulfonyl)phenyl)-N4-methyl-7H-pyrrolo[2,3-d]pyrimidine-2,4-diamine]	57%	96%	100%	2.7%	100%	83%	29%	96%	82%	100%
CNc1nc(Nc2ccc(C(=O)N3CCC(N4CCOCC4)CC3)c3c2OCO3)nc2[nH]cc(Cl)c12 [Compound 75, (7-((5-chloro-4-(methylamino)-7H-pyrrolo[2,3-d]pyrimidin-2-yl)amino)benzo[d][1,3]dioxol-4-yl)(4-morpholinopiperidin-1-yl)methanone]	55%	79%	96%	1.2%	100%	90%	28%	73%	73%	95%
CNc1nc(Nc2ccc(P3(=O)CCN(C4CCOCC4)CC3)cc2OC)nc2[nH]cc(Cl)c12 [Compound 77, 4-(4-((5-chloro-4-(methylamino)-7H-pyrrolo[2,3-d]pyrimidin-2-yl)amino)-3-methoxyphenyl)-1-(tetrahydro-2H-pyran-4-yl)-1,4-azaphosphinane 4-oxide]	70%	91%	100%	1.3%	100%	83%	10%	65%	88%	83%
